Key:
[1] = Phase 1 pediatric dose-escalation trial: pharmacokinetic studies (exposure, AUC0-∞); type: in vivo, human; settings: for AUC(0-inf): human, plasma, oral
Experimental: (§1) A 3+3 design is used. Based on the adult dose of 350 mg/m^2 by mouth every week (using a typical adult BSA of 1.7 m^2), the starting dose for the pediatric study was 80% of the adult RP2D, which was 280 mg/m^2 by mouth every week. Doses were escalated in an inter-patient stepwise fashion until dose-limiting toxicities (DLTs) were observed. The three different dose levels: 280 mg/m^2, 350 mg/m^2, and […].
(§2) Treatment began at 80% of the adult dose (i.e., 280 mg/m^2 by mouth once weekly based on the following calculation: • An adult dose of 600 mg once weekly and an average adult BSA (m^2) of 1.73 m^2=350 mg/m^2 • 80% of 350 mg/m^2=280 mg/m^2 starting dose
(§3) The dose escalation scheme is described in Table 1-A. The initial phase included 3 dose escalation levels to a maximum of 530 mg/m^2/dose weekly.
Pharmacokinetic studies were performed on all patients in the phase I component of the trial as venous access allowed. The initial phase 1 included 3 dose escalation levels to a maximum of 530 mg/m^2/dose weekly. PK studies were also conducted to evaluate phosphorylated ERK in the peripheral blood mononuclear cells.

[2] = system: pediatric low grade glioma (pLGG); assay: Phase 1 pediatric dose-escalation trial: tumor response by RANO criteria; type: in vivo, human; settings: for Best RANO Response (T1-Gad): pLGG
Experimental: as §1, §2, §3
FIG. 2 illustrates Phase 1 trial data of these nine individual pediatric LGG (pLGG) patient responses to Compound A over time. […] The median time to response was 10.5 weeks. Two patients achieved a complete response that was maintained throughout the dosing period of up to two years.
Two of eight patients with a RAF fusion had prolonged stable disease.

[3] = pLGG patients with a RAF fusion, Phase 1

Question: What does the source list for C[C@@H](NC(=O)c1ncnc(N)c1Cl)c1ncc(C(=O)Nc2cc(C(F)(F)F)c(Cl)cn2)s1 [Compound A, (R)-2-(1-(6-amino-5-chloropyrimidine-4-carboxamido)ethyl)-N-(5-chloro-4-(trifluoromethyl)pyridin-2-yl)thiazole-5-carboxamide]?
Answer: Dose normalized AUC0-∞ ([1]; Subject-1 (PNOC014-01), predicted exposure at 530 mg/m^2 (predicted dose 456, 21 mg/kg), original dose cohort 280 mg/m^2): 1268 µg·h/L; Dose normalized AUC0-∞ ([1]; Subject-2 (PNOC014-02), predicted exposure at 530 mg/m^2 (predicted dose 530, 19 mg/kg), original dose cohort 280 mg/m^2): 682 µg·h/L; Dose normalized AUC0-∞ ([1]; Subject-3 (PNOC014-03), predicted exposure at 530 mg/m^2 (predicted dose 419, 23 mg/kg), original dose cohort 280 mg/m^2): 614 µg·h/L; Dose normalized AUC0-∞ ([1]; Subject-4 (PNOC014-04), predicted exposure at 530 mg/m^2 (predicted dose 906, 13 mg/kg), original dose cohort 350 mg/m^2): 705 µg·h/L; Dose normalized AUC0-∞ ([1]; Subject-5 (PNOC014-05), predicted exposure at 530 mg/m^2 (predicted dose 906, 14 mg/kg), original dose cohort 350 mg/m^2): 653 µg·h/L; Dose normalized AUC0-∞ ([1]; Subject-6 (PNOC014-06), predicted exposure at 530 mg/m^2 (predicted dose 848, 16 mg/kg), original dose cohort 350 mg/m^2): 640 µg·h/L; Dose normalized AUC0-∞ ([1]; Subject-7 (PNOC014-07), predicted exposure at 530 mg/m^2 (predicted dose 784, 15 mg/kg), original dose cohort 420 mg/m^2): 701 µg·h/L; Dose normalized AUC0-∞ ([1]; Subject-9 (PNOC014-09), predicted exposure at 530 mg/m^2 (predicted dose 376, 24 mg/kg), original dose cohort 420 mg/m^2): 1122 µg·h/L; AUC(0-inf) ([1]; 280 mg/m^2, Subject-1 (PNOC014-01), 21.9 kg, BSA 0.86 m^2, dose cohort 280 mg/m^2 by mouth once weekly, dose given 240 mg (11.0 mg/kg)): 670 ng·h/mL; AUC(0-inf) ([1]; 280 mg/m^2, Subject-2 (PNOC014-02), 28.2 kg, BSA 1.0 m^2, dose cohort 280 mg/m^2 by mouth once weekly, dose given 280 mg (9.9 mg/kg)): 361 ng·h/mL; AUC(0-inf) ([1]; 280 mg/m^2, Subject-3 (PNOC014-03), 18.1 kg, BSA 0.79 m^2, dose cohort 280 mg/m^2 by mouth once weekly, dose given 220 mg (12.2 mg/kg)): 324 ng·h/mL; AUC(0-inf) ([1]; 350 mg/m^2, Subject-4 (PNOC014-04), 69.6 kg, BSA 1.71 m^2, dose cohort 350 mg/m^2 by mouth once weekly, dose given 600 mg (8.6 mg/kg)): 466 ng·h/mL; AUC(0-inf) ([1]; 350 mg/m^2, Subject-5 (PNOC014-05), 66.5 kg, BSA 1.71 m^2, dose cohort 350 mg/m^2 by mouth once weekly, dose given 600 mg (9.0 mg/kg)): 431 ng·h/mL; AUC(0-inf) ([1]; 350 mg/m^2, Subject-6 (PNOC014-06), 53.6 kg, BSA 1.6 m^2, dose cohort 350 mg/m^2 by mouth once weekly, dose given 560 mg (10.4 mg/kg)): 423 ng·h/mL; AUC(0-inf) ([1]; 420 mg/m^2, Subject-7 (PNOC014-07), 53.7 kg, BSA 1.48 m^2, dose cohort 420 mg/m^2 by mouth once weekly, dose given 620 mg (11.5 mg/kg)): 556 ng·h/mL; AUC(0-inf) ([1]; 420 mg/m^2, Subject-9 (PNOC014-09), 15.6 kg, BSA 0.71 m^2, dose cohort 420 mg/m^2 by mouth once weekly, dose given 300 mg (19.2 mg/kg)): 889 ng·h/mL; patients who did not respond ([2]; NF1-associated pLGG, Phase 1): One; Best RANO Response (T1-Gad) ([2]; Subject-1 (PNOC014-01), BSA 0.86 m^2, dose cohort 280 mg/m^2 once weekly): CR (CR = −100%); Best RANO Response (T1-Gad) ([2]; Subject-2 (PNOC014-02), BSA 1.0 m^2, dose cohort 280 mg/m^2 once weekly): PR (PR = −50% or more reduction from baseline); Best RANO Response (T1-Gad) ([2]; Subject-3 (PNOC014-03), BSA 0.79 m^2, dose cohort 280 mg/m^2 once weekly): PR (PR = −50% or more reduction from baseline); Best RANO Response (T1-Gad) ([2]; Subject-4 (PNOC014-04), BSA 1.71 m^2, dose cohort 350 mg/m^2 once weekly): PD (PD = ≥25% growth from nadir); Best RANO Response (T1-Gad) ([2]; Subject-5 (PNOC014-05), BSA 1.71 m^2, dose cohort 350 mg/m^2 once weekly): SD (SD = between −50% and +25%); Best RANO Response (T1-Gad) ([2]; Subject-6 (PNOC014-06), BSA 1.6 m^2, dose cohort 350 mg/m^2 once weekly): PD (PD = ≥25% growth from nadir); Best RANO Response (T1-Gad) ([2]; Subject-7 (PNOC014-07), BSA 1.48 m^2, dose cohort 420 mg/m^2 once weekly): SD (SD = between −50% and +25%); Best RANO Response (T1-Gad) ([2]; Subject-9 (PNOC014-09), BSA 0.71 m^2, dose cohort 420 mg/m^2 once weekly): PR (PR = −50% or more reduction from baseline); patients achieving a complete response maintained throughout the dosing period of up to two years ([2]; nine pLGG patients, Phase 1): Two; patients achieving prolonged stable disease ([2]; nine pLGG patients, Phase 1): two; patients who did not achieve a response ([2]; nine pLGG patients, Phase 1): two; patients with a partial response ([2]; nine pLGG patients, Phase 1): Three; patients with shrinkage in lesion size in the first radiologic images after initiation of dosing ([2]; nine pLGG patients, Phase 1): six of nine; median time to response ([2]; nine pLGG patients, Phase 1, 280-420 mg/m^2 once weekly): 10.5 weeks; patients who did not respond [2, 3]: One; patients with complete or partial response per RANO criteria (≥50% decrease compared with baseline) [2, 3]: Five of the eight; patients with prolonged stable disease [2, 3]: Two of eight

Source: US20230355618A1, “RAF INHIBITOR FOR TREATING LOW GRADE GLIOMA” (Day One Biopharmaceuticals, Inc., priority 2020, published 2023)
